The subject of one data set is integrin α3β1. Nature of the data set: MicroScale Thermophoresis integrin binding. On the set-up: species or system human. As to conditions: MST, n = 3. The source says: The interaction between integrins and peptide ligands in PBS was quantified by a Monolith® NT.115Pico (NanoTemper Technology, Germany) using MO. Control 1.6 software. Recombinant human integrin proteins, including alpha-3/ beta-1, alpha-5/beta-1, and alpha-6/ beta-1, were purchased from R&D Systems (USA). Recombinant integrin proteins were labeled by Monolith^TM Protein Labeling Kit RED-NHS (NanoTemper Technology) following the instruction provided by the manufacturer. The fluorescence-labeled integrin solution was mixed with peptides solution in 15 concentration gradients at a 1:1 ratio. The Monolith^TM NT.115 MST Premium Coated Capillaries (NanoTemper Technology) were applied to draw the mixed solution with the order of declining ligand concentration. Pretests were performed to ensure the protein concentration and fluorescent intensities in each tube were equal. Following that, quantitative binding affinity was measured three times.
On the technique in general: Microscale thermophoresis detects binding through changes in fluorescence in a small temperature gradient.

A further data set deals with HuH-7 cells. The data set is described as follows: MTT assay, HuH-7 cell viability. Type of data set: cell-based, human. To be noted: HuH-7, 10-200 µM, 24, 48, 72 hr. As for the experimental part: Huh-7 cells were seeded in 96-well plates at a density of 5 × 10^3 cells/ well. The cells were allowed to adhere by incubating at 37 °C with 5% CO2 for 12 hr. 100 μL of Cultured medium containing 10% FBS and the desired concentration of peptide replaced to each well and the cells were then incubated with the peptide solution for another 24, 48, or 72 hr. After the desired time of incubation, 10 μL of MTT (12 mM, Invitrogen) solution at a concentration of 5 mg/mL was added to each well and incubated at 37 °C for another 4 hr. The reduction reaction was terminated by adding 100 μL of 10% of SDS solution (in Milli-Q) and incubated for 12 hr to dissolve the formazan crystals formed in the cells. A Nivo multimode plate reader (PerkinElmer) was used to measure the optical density at the 570 nm wavelength of each well. All experiments were conducted in triplicate, and the results were calculated as mean ± standard deviation and presented as cell viability.
In general terms: Tetrazolium dyes change colour on reduction, which living cells bring about.

Data set [1] has as its system Phospho-Myosin Light Chain 2 (Thr18/Ser19) (pMLC) in HuH-7 cells. The data set is described as follows: Western blotting pMLC. Type of data set: cell-based, human. To be noted: relative to Ctrl = 1, 12 hr, representative blot. As for the experimental part: Protein lysates were prepared in ice-cold RIPA lysis, and extraction buffer (Thermo Scientific) supplemented with 1% Halt Protease Inhibitor (Thermo Scientific) and 1% Halt Phosphatase inhibitor (Thermo Scientific). Cells were scraped off from the culture surface using a cold plastic cell scraper, and the cell suspension was then gently transferred into a pre-cooled microcentrifuge tube and maintained on ice for 30 min with constant agitation before centrifuged at 21000 × g for 20 min. The supernatant was then transferred to a new tube, and the protein concentration of the supernatant was quantified according to the Pierce™ BCA Protein Assay Kit (Thermo Scientific). The rest of the supernatant was mixed with 4x laemmli sample buffer (Bio-Rad) in a 1:3 ratio and boiled at 100 °C for 10 min. Lysates can be aliquoted and stored at −80 °C freezer. When running the gel, 30 μg of protein was loaded into each well of the SDS-PAGE gels, along with a molecular weight marker (Bio-Rad). The gel was run for 2 hr at constantly 100 V to separate the proteins based on the molecular weight. The proteins were then transferred from the SDS-gel to a PVDF membrane (Bio-Rad) using a Transfer-blot turbo system (Bio-Rad). […] Protein bands were quantified by measuring peak areas using ImageJ. […]
A general note: Immunoblotting shows a protein as a band on a membrane.

Data set [2] concerns cells expressing integrin α3β1. The data set is described as follows: Cell adhesion assay, cells expressing integrin α3β1. As to conditions: coated with 100 µM, 1 h at 37 °C, n = 30. Type of data set: cell-based, human. As for the experimental part: The 96-well microplates wells were coated with peptide assemblies (the concentration of FFFIKLLI was kept at 100 μM constantly) for 12 hr at 37 °C before blocked with the Blocking Buffer (2% BSA, 1 mM CaCI2 and 1 mM MnCI2 in PBS) for 1 hr at 37 °C. Cells were collected from culture dishes and suspended in the Blocking Buffer containing anti-laminin-5 (P3H9-2, MAB1947, Chemicon, 5 μg/ml), anti-fibronectin (IST-9, ab6328, Abcam, 20 μg/ml) or IgG isotype control (20 μg/ml, Abcam) before immediately seeded to the coated well (20,000 cells/well) and allowed to incubate at 37 °C for 1 h. The wells were washed for three times with the Blocking Buffer and the phase-contrast images were captured by IncucyteS3 (Essen Bioscience) with a 10× objective.

Data set [3] is described as follows: TEM imaging / preparation of peptide assemblies (nanofilament size and stability). Type of data set: physicochemical. To be noted: in water. As for the experimental part:
To prepare the stocks of peptide assembled nanofilaments, the required amount of peptide was dissolved in Milli-Q water at 100 mM (for FFF) or 10 mM (for the other peptides, and peptides mixture) and adjust the solution to reach a final pH of 7.0 using 1 N NaOH solution. To stabilize the peptide assemblies, the stock solutions were stored at room temperature for at least 24 h before application. The obtained nanofilaments were very stable and were not affected by simple dilution at neutral pH. Therefore, to prepare the working solution, the desired amount of stock solution was diluted using Milli-Q water or the culture medium. Stand the working solutions for 30 min to evenly distribute nanofilaments in the working solution before applying them to the experiments.
To prepare TEM samples, 5 μL peptide solution was dropped on a glow-charged copper grid (400 mesh) coated with carbon film. After removing excess solution, the grid was gently washed three times to remove excess nanofilaments. Then the sample grid was negatively stained using 1.0% (w/v) uranyl acetate and air-dried. TEM images were captured at a high vacuum using a transmission electron microscope (JEM-1230R, JEOL, Japan).

Data on 1 sequence can be found in publication PMC9411606, “Control cell migration by engineering integrin ligand assembly” (Nature Communications, 2022).

“FFFIKLLI [assembling ligand: FFF coupled to the N-terminus of IKLLI; self-assembles into nanofilaments]”: the integrin-binding affinity entry with integrin α3β1 (PBS, integrin 2 nM, in words) is “highest binding affinity”. Also, the integrin selectivity entry in the data set with integrin α3β1 (integrin α3β1 vs α5β1 and α6β1, integrin 2 nM) is listed as “selectively targeted integrin α3β1”. In addition, the cytotoxicity result in the data set on HuH-7 cells is reported as “without inducing cytotoxicity”. Further, the pMLC band in data set [1] was 0.17. In addition, the “adherence to FFFIKLLI-coated dishes” value in data set [2] was “remained adhered to the substrate”. Besides, the nanofilament width in data set [3] (TEM, FFFIKLLI 100 μM) is ~ 100 nm. In data set [3] (neutral pH, simple dilution), the nanofilament stability result is “stable”.
